In patent US6350749B1, “Aminoguanidine hydrazone derivatives, process for producing the same and drugs thereof” (Takeda Chemical Industries, Ltd., priority 1998, dated 2002):

How the values were obtained:
[1] = target: T1, Na—H exchange (Rattus norvegicus, UniProt P26431); assay: Rat platelet swelling in sodium propionate solution (light transmittance of PRP), inhibition of Na—H exchange; type: cell-based; conditions: 1 min, test compound 10^−7 M; rat platelet rich plasma; value 1 minute after sodium propionate solution; 100% = difference between 1% DMSO and HOE-642 (10^−5M); read-out: Inhibition Rate (%) [10^−7 M]
T1 construct: The blood was centrifuged at 3000 rpm for 5 seconds to obtain platelet rich plasma (PRP); from tissue; host or cells: platelets in platelet rich plasma from abdominal aortic blood of male Wistar rats
T1 sequence (P26431 whole entry): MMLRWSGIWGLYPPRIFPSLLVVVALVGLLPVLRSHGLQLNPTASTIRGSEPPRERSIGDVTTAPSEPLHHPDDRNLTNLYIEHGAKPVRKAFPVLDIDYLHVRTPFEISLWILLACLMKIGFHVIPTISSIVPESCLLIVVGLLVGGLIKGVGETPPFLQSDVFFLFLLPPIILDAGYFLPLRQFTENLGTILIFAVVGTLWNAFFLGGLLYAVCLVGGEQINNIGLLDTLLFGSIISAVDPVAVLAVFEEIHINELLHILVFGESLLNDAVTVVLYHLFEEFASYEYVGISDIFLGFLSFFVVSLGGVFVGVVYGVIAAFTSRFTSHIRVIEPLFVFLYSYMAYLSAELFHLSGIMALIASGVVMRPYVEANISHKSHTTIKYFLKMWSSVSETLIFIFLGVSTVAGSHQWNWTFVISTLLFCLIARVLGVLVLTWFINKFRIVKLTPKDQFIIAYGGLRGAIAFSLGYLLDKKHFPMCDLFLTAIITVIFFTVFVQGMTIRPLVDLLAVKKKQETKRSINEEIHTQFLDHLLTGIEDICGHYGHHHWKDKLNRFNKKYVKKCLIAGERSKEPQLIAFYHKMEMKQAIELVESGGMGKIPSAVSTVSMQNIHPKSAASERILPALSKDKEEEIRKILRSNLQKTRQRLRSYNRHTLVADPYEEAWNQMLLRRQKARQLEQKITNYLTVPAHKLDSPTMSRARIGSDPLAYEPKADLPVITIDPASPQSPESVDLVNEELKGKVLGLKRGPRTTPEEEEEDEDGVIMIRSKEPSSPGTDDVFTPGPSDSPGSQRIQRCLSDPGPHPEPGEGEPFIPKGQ
Description: Male Wistar rats (350-450 g) were anesthetized with sodium pentobarbital (50 mg/kg, i.p.). Using a disposable syringe pre-filled with 1.5 ml of 3.8% citric acid solution, 8.5 ml of blood was collected from the abdominal aorta. The blood was centrifuged at 3000 rpm for 5 seconds to obtain platelet rich plasma (PRP). The number of platelets in the PRP was counted by an automatic hemocytometer (Sysmex 2500, TOA Medical Electronics). The PRP was diluted with physiological saline to make the concentration of 40×10^4 platelets per 1 μl. A platelet aggregometer (Hematoracer, Niko Bioscience) was used for measurement of the platelet swelling. 200 μl of the PRP was poured into a cuvette and 600 μl of sodium propionate solution (Na propionate 135, glucose 10, Hepes 20, CaCl2 1, MgCl2 1; Units: mM; pH6.7) was added while stirring at 37° C. The change in the light transmittance of PRP which was an indicator of the platelet swelling was recorded on a plotter. The test compound was added 3 minutes before addition of the sodium propionate solution. The test compounds were dissolved in dimethylsulfoxide (DMSO).

Row | Structure (SMILES) | melting point | inhibition at 0.1 µM [1] [%]
1 | Cc1n[nH]c2c1C(=NNC(=N)NO)CC(c1ccccc1Cl)C2.Cl (stereo not shown) [Compound 93, 6-(2-chlorophenyl)-4-(1-hydroxyguanidin-3-yl)imino-3-methyl-4,5,6,7-tetrahydroindazole hydrochloride] | 234 to 235 °C (dec.) | 69
2 | Cc1n[nH]c2c1C(=NNC(=N)N)CC(c1sccc1Cl)C2.Cl (stereo not shown) [Compound 119, 6-(3-chloro-2-thienyl)-4-guanidinoimino-3-methyl-4,5,6,7-tetrahydroindazole hydrochloride] | 204 °C (dec.) | 100
3 | Cc1ccnc2c1C(=NNC(=N)N)CC(c1ccsc1Br)C2.Cl (stereo not shown) [Compound 123, 7-(2-bromothiophen-3-yl)-5-guanidinoimino-4-methyl-5,6,7,8-tetrahydroquinoline hydrochloride] | 243 to 245 °C | 81
4 | Cc1n[nH]c2c1C(=NNC(=N)N)CC(c1cc(Cl)sc1Cl)C2.Cl (stereo not shown) [Compound 127, 6-(2,5-dichlorothiophen-3-yl)-4-guanidinoimino-3-methyl-4,5,6,7-tetrahydroindazole hydrochloride] | ≥ 300 °C | 98
5 | Cc1n[nH]c2c1C(=NNC(=N)NO)CC(c1cc(Cl)sc1Cl)C2.Cl (stereo not shown) [Compound 128, 6-(2,5-dichlorothiophen-3-yl)-4-(1-hydroxyguanidin-3-yl)imino-3-methyl-4,5,6,7-tetrahydroindazole hydrochloride] | 190 to 192 °C (dec.) | 78
6 | Cc1cnnc2c1C(=NNC(=N)N)CC(c1ccccc1Cl)C2.Cl (stereo not shown) [Compound 129, 7-(2-chlorophenyl)-5-guanidinoimino-4-methyl-5,6,7,8-tetrahydrocinnoline hydrochloride] | 241 to 243 °C | 80
7 | Cc1cnnc2c1C(=NNC(=N)N)CC(c1cc(Cl)sc1Cl)C2.Cl (stereo not shown) [Compound 131, 7-(2,5-dichlorothiophen-3-yl)-5-guanidinoimino-4-methyl-5,6,7,8-tetrahydrocinnoline hydrochloride] | ≥ 300 °C | 88
8 | CCc1cnnc2c1C(=NNC(=N)N)CC(c1ccccc1Cl)C2.CS(=O)(=O)O (stereo not shown) [Compound 133, 7-(2-chlorophenyl)-5-guanidinoimino-4-ethyl-5,6,7,8-tetrahydrocinnoline methanesulfonate] | 244 to 245 °C (dec.) | 87
